{
  "source": "patent US20200163332A1",
  "about": "“METHOD OF IMPROVING CROP SAFETY” (Bayer CropScience LP, priority 2017, published 2020)",
  "key": {"[1]": {"test_system": "Soybean seeds of the variety Williams 82", "settings": "with ILEVO 0.15 mg ai per seed, versus ILEVO alone, CaCl2•2 H2O 10.000 mM, about 10 days after planting", "experimental": "All solutions were pH adjusted to pH 5.6-6.2. In addition, a seed treatment was prepared with a cobalt and molybdenum combination (“CoMo”) containing the cobalt chloride and sodium molybdate applied at the respective doses shown in Table 9. A commercial zinc solution was also applied as a seed treatment. “Macro”, “Micro” and “Complete” nutrient solution cocktails which combined all the respective nutrients from Table 9 into one nutrient solution were included as seed treatments.\nAbout 10 days after planting the treated seeds, the emerging seedlings were analyzed to determine their average plant height and average unifoliate leaf area."}, "[2]": {"test_system": "Soybean seeds of the variety Williams 82", "settings": "for Average Area (Total Leaf Area) / Average Height (Plant Height): 15 Days after Planting", "experimental": "Plant heights and total leaf area were determined 15 days after planting. The total leaf area was calculated by adding the unifoliate leaf area and the trifoliate leaf area of a soybean plant. Between 11 and 15 replicates were evaluated for each measurement. Average values along with their standard errors are reported."}, "[3]": {"test_system": "Soybean seeds of the variety Williams 82", "assay": "Example A: soybean seed treatment with antioxidants, with or without Fluopyram; cotyledon total and healthy area", "settings": "for Average Cotyledon Area (mm^2) Growth Promotion with Antioxidant / Increase in Healthy Area % Difference: antioxidant at effective concentration versus no antioxidant; for Average Cotyledon Area / Average % Healthy Area / Average Healthy Area: after 10 days"}, "[4]": {"settings": "ILEVO 0.15 mg ai per seed + 10 mM CaCl2•2 H2O"}, "[5]": {"settings": "ILEVO 0.15 mg ai per seed + 75 mM CaCl2•2 H2O"}, "[6]": {"settings": "ILEVO 0.15 mg ai per seed + 150 mM CaCl2•2 H2O"}, "[7]": {"settings": "calcium chloride added to ILEVO seed treatment versus ILEVO alone, effect increased at higher concentrations"}, "[8]": {"settings": "two additional soybean varieties besides Williams 82"}, "[9]": {"settings": "UTC seeds (no FLU) plus antioxidant at effective concentration (Beta-Carotene 200 μM, Co-enzyme Q10 3 μM, Meso-Zeaxanthin 250 ppm, L-ascorbic acid 800 ppm, alpha tocopherol phosphate disodium 100 ppm)"}, "[10]": {"settings": "UTC seeds (no FLU) plus antioxidant at effective concentration (as in E7)"}, "[11]": {"settings": "seeds treated with FLU 0.15 mg ai/seed plus antioxidant at effective concentration (200 μM, 3 μM, 250 ppm, 800 ppm, 100 ppm as in E4)"}, "[12]": {"settings": "seeds treated with FLU 0.15 mg ai/seed plus antioxidant at effective concentration (Beta-Carotene 200 μM, Co-enzyme Q10 3 μM, Meso-Zeaxanthin 250 ppm, L-ascorbic acid 800 ppm, alpha tocopherol phosphate disodium 100 ppm)"}, "[13]": {"settings": "FLU 0.15 mg ai/seed alone (antioxidant 0 μM / 0 ppm; control of the respective antioxidant series)"}},
  "note": "Several values for one entry are separate records, joined by “and”; a condition that tells them apart may be missing. Equal values may be shown once. Read-outs that look alike come from different tables or passages of the source.",
  "data": [
    {"compound": "[Ca+2].[Cl-].[Cl-]", "note": "[CaCl2•2 H2O, calcium chloride]", "values": [
      {"measurement": "average plant height", "setting": "[1]; FIG. 1", "result": "significantly increased"},
      {"measurement": "average unifoliate leaf area", "setting": "[1]; FIG. 2", "result": "significantly increased"},
      {"measurement": "Average Area (Total Leaf Area)", "setting": "[2]; [4]", "result": 46.70, "unit": "cm^2"},
      {"measurement": "Average Height (Plant Height)", "setting": "[2]; [4]", "result": 12.93, "unit": "cm"},
      {"measurement": "Average Area (Total Leaf Area)", "setting": "[2]; [5]", "result": 53.89, "unit": "cm^2"},
      {"measurement": "Average Height (Plant Height)", "setting": "[2]; [5]", "result": 13.69, "unit": "cm"},
      {"measurement": "Average Area (Total Leaf Area)", "setting": "[2]; [6]", "result": 53.03, "unit": "cm^2"},
      {"measurement": "Average Height (Plant Height)", "setting": "[2]; [6]", "result": 14.31, "unit": "cm"},
      {"measurement": "height of the soybean plants", "setting": "[2]; [7]", "result": "significantly increased"},
      {"measurement": "total leaf area of the soybean plants", "setting": "[2]; [7]", "result": "significantly increased"},
      {"measurement": "effect on height of soybean plants treated with ILEVO", "setting": "[2]; [8]", "result": "positive effect"},
      {"measurement": "effect on leaf area of soybean plants treated with ILEVO", "setting": "[2]; [8]", "result": "positive effect"}
    ]},
    {"compound": "COC1=C(OC)C(=O)C(C/C=C(\\C)CC/C=C(\\C)CC/C=C(\\C)CC/C=C(\\C)CC/C=C(\\C)CC/C=C(\\C)CC/C=C(\\C)CC/C=C(\\C)CC/C=C(\\C)CCC=C(C)C)=C(C)C1=O", "note": "[Co-enzyme Q10]", "values": [
      {"measurement": "Average Cotyledon Area (mm^2) Growth Promotion with Antioxidant", "setting": "[3]; FLU-treated seeds", "result": 19.49, "unit": "mm^2"},
      {"measurement": "Increase in Healthy Area % Difference", "setting": "[3]; FLU-treated seeds", "result": 10.25, "unit": "%"},
      {"measurement": "Average Cotyledon Area", "setting": "[3]; [9]", "result": 416.55, "unit": "mm^2"},
      {"measurement": "Average % Healthy Area", "setting": "[3]; [10]", "result": 100.00, "unit": "%"},
      {"measurement": "Average Healthy Area", "setting": "[3]; [10]", "result": 416.55, "unit": "mm^2"},
      {"measurement": "Average Cotyledon Area (mm^2) Growth Promotion with Antioxidant", "setting": "[3]; UTC seeds (no FLU)", "result": 47.57, "unit": "mm^2"},
      {"measurement": "Increase in Healthy Area % Difference", "setting": "[3]; UTC seeds (no FLU)", "result": 0.00, "unit": "%"},
      {"measurement": "Average % Healthy Area", "setting": "[3]; [11]", "result": 76.54, "unit": "%"},
      {"measurement": "Average Healthy Area", "setting": "[3]; [11]", "result": 240.72, "unit": "mm^2"},
      {"measurement": "Average Cotyledon Area", "setting": "[3]; [12]", "result": 312.31, "unit": "mm^2"}
    ]},
    {"compound": "O=C(NCCc1ncc(C(F)(F)F)cc1Cl)c1ccccc1C(F)(F)F", "note": "[FLU, Fluopyram, reference compound]", "values": [
      {"measurement": "Average % Healthy Area", "setting": "[3]; [13]", "result": "59.63% and 67.93% and 68.20% and 60.08% and 66.29%"},
      {"measurement": "Average Cotyledon Area", "setting": "[3]; [13]", "result": "252.85 mm^2 and 307.56 mm^2 and 290.71 mm^2 and 237.73 mm^2 and 292.81 mm^2"},
      {"measurement": "Average Healthy Area", "setting": "[3]; [13]", "result": "153.20 mm^2 and 210.37 mm^2 and 199.35 mm^2 and 142.71 mm^2 and 195.10 mm^2"}
    ]},
    {"compound": "Meso-Zeaxanthin", "values": [
      {"measurement": "Average Cotyledon Area (mm^2) Growth Promotion with Antioxidant", "setting": "[3]; FLU-treated seeds", "result": 78.23, "unit": "mm^2"},
      {"measurement": "Increase in Healthy Area % Difference", "setting": "[3]; FLU-treated seeds", "result": 10.05, "unit": "%"},
      {"measurement": "Average Cotyledon Area", "setting": "[3]; [9]", "result": 350.59, "unit": "mm^2"},
      {"measurement": "Average % Healthy Area", "setting": "[3]; [10]", "result": 99.66, "unit": "%"},
      {"measurement": "Average Healthy Area", "setting": "[3]; [10]", "result": 349.18, "unit": "mm^2"},
      {"measurement": "Average Cotyledon Area (mm^2) Growth Promotion with Antioxidant", "setting": "[3]; UTC seeds (no FLU)", "result": 30.66, "unit": "mm^2"},
      {"measurement": "Increase in Healthy Area % Difference", "setting": "[3]; UTC seeds (no FLU)", "result": 4.59, "unit": "%"},
      {"measurement": "Average % Healthy Area", "setting": "[3]; [11]", "result": 69.68, "unit": "%"},
      {"measurement": "Average Healthy Area", "setting": "[3]; [11]", "result": 230.46, "unit": "mm^2"},
      {"measurement": "Average Cotyledon Area", "setting": "[3]; [12]", "result": 331.07, "unit": "mm^2"}
    ]}
  ]
}
